Results as given in US12139492B2 (Endotarget Inc., priority 2021, dated 2024).

Columns and labels:
Mino cells = assay: Antiproliferative effect, MTS cell viability assay, Mino cells; assay type: cell-based; settings: Homo sapiens, MINO, Mino mantle cell lymphoma cells; read-out: IC50 (anti-proliferation) Mino cells
How it was run: (§1)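 Cells were exposed to compound at 0, 0.001, 0.01, 0.1, 1 and 10 μM for 72 h. Viability was then measured by MTS assay, reading formazan produced by metabolically active cells as absorbance at 490 nm.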

JeKo-1 cells = assay: Antiproliferative effect, MTS cell viability assay, JeKo-1 cells; assay type: cell-based; settings: Homo sapiens; JeKo-1 mantle cell lymphoma cells; read-out: IC50 (anti-proliferation) JeKO-1 cells
How it was run: as §1

BTK = BTK (Homo sapiens, UniProt Q06187); assay: Degradation of BTK protein in Namalwa cells (Western blot; DC50, Dmax); settings: for DC50: BTK degradation, cell line not given
Sequence of BTK (Q06187 whole entry): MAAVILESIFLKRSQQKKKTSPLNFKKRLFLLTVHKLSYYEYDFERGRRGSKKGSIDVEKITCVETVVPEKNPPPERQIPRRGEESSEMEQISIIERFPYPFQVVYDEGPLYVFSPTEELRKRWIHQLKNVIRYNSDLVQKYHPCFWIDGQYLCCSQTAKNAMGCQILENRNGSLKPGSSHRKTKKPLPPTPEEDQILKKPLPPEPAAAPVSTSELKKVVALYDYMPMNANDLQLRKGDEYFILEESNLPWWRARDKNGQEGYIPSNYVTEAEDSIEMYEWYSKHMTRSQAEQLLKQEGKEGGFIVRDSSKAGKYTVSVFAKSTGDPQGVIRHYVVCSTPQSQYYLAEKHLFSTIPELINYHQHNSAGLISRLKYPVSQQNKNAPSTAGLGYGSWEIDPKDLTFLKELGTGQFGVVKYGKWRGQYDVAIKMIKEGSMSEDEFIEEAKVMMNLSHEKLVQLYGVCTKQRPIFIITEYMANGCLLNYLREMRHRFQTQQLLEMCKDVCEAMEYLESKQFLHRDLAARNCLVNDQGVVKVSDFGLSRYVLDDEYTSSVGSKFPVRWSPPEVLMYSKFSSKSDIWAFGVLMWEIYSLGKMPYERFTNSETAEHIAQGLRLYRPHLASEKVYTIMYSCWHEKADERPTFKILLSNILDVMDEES

Structure (SMILES)	IC50 (Mino cells) [µM]	IC50 (JeKo-1 cells) [µM]	Dmax (BTK) [%]	DC50 (BTK) [µM]
NC(=O)c1c(-c2ccc(Oc3ccccc3)cc2)nn2c1NCCC2C1CCN(CC2CCN(C(=O)N3CCC(N4CCC(c5ccc6c(c5)C(=O)N(C5CCC(=O)NC5=O)C6=O)CC4)CC3)CC2)CC1 (stereo not shown) [Compound 367, 7-(1-((1-(4-(2-(2,6-dioxopiperidin-3-yl)-1,3-dioxoisoindolin-5-yl)-[1,4′-bipiperidine]-1′-carbonyl)piperidin-4-yl)methyl)piperidin-4-yl)-2-(4-phenoxyphenyl)-4,5,6,7-tetrahydropyrazolo[1,5-a]pyrimidine-3-carboxamide]	< 1	1 to 10	> 90	0.01 to 0.05
NC(=O)c1c(-c2ccc(Oc3ccccc3)cc2)nn2c1NCCC2C1CCN(CC2CCN(C(=O)N3CCC(N4CCC(c5ccc6c(c5)CN(C5CCC(=O)NC5=O)C6=O)CC4)CC3)CC2)CC1 (stereo not shown) [Compound 368, 7-(1-((1-(4-(2-(2,6-dioxopiperidin-3-yl)-1-oxoisoindolin-5-yl)-[1,4′-bipiperidine]-1′-carbonyl)piperidin-4-yl)methyl)piperidin-4-yl)-2-(4-phenoxyphenyl)-4,5,6,7-tetrahydropyrazolo[1,5-a]pyrimidine-3-carboxamide]	< 1	1 to 10	> 90	< 0.01
NC(=O)c1c(-c2ccc(Oc3ccccc3)cc2)nn2c1NCCC2C1CCN(CC2CCN(C(=O)N3CCC(CN4CCN(c5ccc6c(c5)C(=O)N(C5CCC(=O)NC5=O)C6=O)CC4)CC3)CC2)CC1 (stereo not shown) [Compound 369, 7-(1-((1-(4-((4-(2-(2,6-dioxopiperidin-3-yl)-1,3-dioxoisoindolin-5-yl)piperazin-1-yl)methyl)piperidine-1-carbonyl)piperidin-4-yl)methyl)piperidin-4-yl)-2-(4-phenoxyphenyl)-4,5,6,7-tetrahydropyrazolo[1,5-a]pyrimidine-3-carboxamide]	< 1	1 to 10	> 90	< 0.01
NC(=O)c1c(-c2ccc(Oc3ccccc3)cc2)nn2c1NCCC2C1CCN(CC2CCN(C(=O)N3CCC(CN4CCN(c5ccc6c(c5)CN(C5CCC(=O)NC5=O)C6=O)CC4)CC3)CC2)CC1 (stereo not shown) [Compound 370, 7-(1-((1-(4-((4-(2-(2,6-dioxopiperidin-3-yl)-1-oxoisoindolin-5-yl)piperazin-1-yl)methyl)piperidine-1-carbonyl)piperidin-4-yl)methyl)piperidin-4-yl)-2-(4-phenoxyphenyl)-4,5,6,7-tetrahydropyrazolo[1,5-a]pyrimidine-3-carboxamide]	< 1	< 1	> 90	< 0.01
NC(=O)c1c(-c2ccc(Oc3ccccc3)cc2)nn2c1NCCC2C1CCN(CC2CCN(C(=O)N3CCN(CC4CCN(c5ccc6c(c5)C(=O)N(C5CCC(=O)NC5=O)C6=O)CC4)CC3)CC2)CC1 (stereo not shown) [Compound 371]	< 1	< 1	> 90	0.01 to 0.05
NC(=O)c1c(-c2ccc(Oc3ccccc3)cc2)nn2c1NCCC2C1CCN(CC2CCN(C(=O)N3CCN(CC4CCN(c5ccc6c(c5)CN(C5CCC(=O)NC5=O)C6=O)CC4)CC3)CC2)CC1 (stereo not shown) [Compound 372, 7-(1-((1-(4-((1-(2-(2,6-dioxopiperidin-3-yl)-1-oxoisoindolin-5-yl)piperidin-4-yl)methyl)piperazine-1-carbonyl)piperidin-4-yl)methyl)piperidin-4-yl)-2-(4-phenoxyphenyl)-4,5,6,7-tetrahydropyrazolo[1,5-a]pyrimidine-3-carboxamide]	1 to 10	< 1	> 90	0.01 to 0.05
NC(=O)c1c(-c2ccc(Oc3ccccc3)cc2)nn2c1NCCC2C1CCN(CC2CCN(C(=O)N3CCC(CC4CCN(c5ccc6c(c5)C(=O)N(C5CCC(=O)NC5=O)C6=O)CC4)CC3)CC2)CC1 (stereo not shown) [Compound 373, 7-(1-((1-(4-((1-(2-(2,6-dioxopiperidin-3-yl)-1,3-dioxoisoindolin-5-yl)piperidin-4-yl)methyl)piperidine-1-carbonyl)piperidin-4-yl)methyl)piperidin-4-yl)-2-(4-phenoxyphenyl)-4,5,6,7-tetrahydropyrazolo[1,5-a]pyrimidine-3-carboxamide]	1 to 10	> 10	> 75	0.01 to 0.05
NC(=O)c1c(-c2ccc(Oc3ccccc3)cc2)nn2c1NCCC2C1CCN(CC2CCN(C(=O)N3CCC(CC4CCN(c5ccc6c(c5)CN(C5CCC(=O)NC5=O)C6=O)CC4)CC3)CC2)CC1 (stereo not shown) [Compound 374, 7-(1-((1-(4-((1-(2-(2,6-dioxopiperidin-3-yl)-1-oxoisoindolin-5-yl)piperidin-4-yl)methyl)piperidine-1-carbonyl)piperidin-4-yl)methyl)piperidin-4-yl)-2-(4-phenoxyphenyl)-4,5,6,7-tetrahydropyrazolo[1,5-a]pyrimidine-3-carboxamide]	1 to 10	> 10	> 75	0.01 to 0.05
NC(=O)c1c(-c2ccc(Oc3ccccc3)cc2)nn2c1NCCC2C1CCN(CC2CCN(C(=O)N3CCC(CN4CCC(c5ccc6c(c5)C(=O)N(C5CCC(=O)NC5=O)C6=O)CC4)CC3)CC2)CC1 (stereo not shown) [Compound 375, 7-(1-((1-(4-((4-(2-(2,6-dioxopiperidin-3-yl)-1,3-dioxoisoindolin-5-yl)piperidin-1-yl)methyl)piperidine-1-carbonyl)piperidin-4-yl)methyl)piperidin-4-yl)-2-(4-phenoxyphenyl)-4,5,6,7-tetrahydropyrazolo[1,5-a]pyrimidine-3-carboxamide]	1 to 10	1 to 10	> 75	0.01 to 0.05
NC(=O)c1c(-c2ccc(Oc3ccccc3)cc2)nn2c1NCCC2C1CCN(CC2CCN(C(=O)N3CCC(CN4CCC(c5ccc6c(c5)CN(C5CCC(=O)NC5=O)C6=O)CC4)CC3)CC2)CC1 (stereo not shown) [Compound 376, 7-(1-((1-(4-((4-(2-(2,6-dioxopiperidin-3-yl)-1-oxoisoindolin-5-yl)piperidin-1-yl)methyl)piperidine-1-carbonyl)piperidin-4-yl)methyl)piperidin-4-yl)-2-(4-phenoxyphenyl)-4,5,6,7-tetrahydropyrazolo[1,5-a]pyrimidine-3-carboxamide]	1 to 10	1 to 10	> 75	0.01 to 0.05
NC(=O)c1c(-c2ccc(Oc3ccccc3)cc2)nn2c1NCC[C@H]2C1CCN(C2CCN(C(=O)N3CCN(c4ccc5c(c4)CN(C4CCC(=O)NC4=O)C5=O)CC3)CC2)CC1 (stereo partly drawn) [Compound 378, (7S)-7-(1′-(4-(2-(2,6-dioxopiperidin-3-yl)-1-oxoisoindolin-5-yl)piperazine-1-carbonyl)-[1,4′-bipiperidin]-4-yl)-2-(4-phenoxyphenyl)-4,5,6,7-tetrahydropyrazolo[1,5-a]pyrimidine-3-carboxamide]	> 10	> 10	> 50	> 0.05
NC(=O)c1c(-c2ccc(Oc3ccccc3)cc2)nn2c1NCC[C@H]2C1CCN(C2CCN(C(=O)N3CCN(Cc4ccc5c(c4)C(=O)N(C4CCC(=O)NC4=O)C5=O)CC3)CC2)CC1 (stereo partly drawn) [Compound 379, (7S)-7-(1′-(4-((2-(2,6-dioxopiperidin-3-yl)-1,3-dioxoisoindolin-5-yl)methyl)piperazine-1-carbonyl)-[1,4′-bipiperidin]-4-yl)-2-(4-phenoxyphenyl)-4,5,6,7-tetrahydropyrazolo[1,5-a]pyrimidine-3-carboxamide]	> 10	> 10	> 75	> 0.05
NC(=O)c1c(-c2ccc(Oc3ccccc3)cc2)nn2c1NCC[C@H]2C1CCN(C2CCN(C(=O)N3CCN(Cc4ccc5c(c4)CN(C4CCC(=O)NC4=O)C5=O)CC3)CC2)CC1 (stereo partly drawn) [Compound 380, (7S)-7-(1′-(4-((2-(2,6-dioxopiperidin-3-yl)-1-oxoisoindolin-5-yl)methyl)piperazine-1-carbonyl)-[1,4′-bipiperidin]-4-yl)-2-(4-phenoxyphenyl)-4,5,6,7-tetrahydropyrazolo[1,5-a]pyrimidine-3-carboxamide]	1 to 10	> 10	> 75	> 0.05
NC(=O)c1c(-c2ccc(Oc3ccccc3)cc2)nn2c1NCC[C@H]2C1CCN(C2CCN(C(=O)N3CCC(N4CCN(c5ccc6c(c5)C(=O)N(C5CCC(=O)NC5=O)C6=O)CC4)CC3)CC2)CC1 (stereo partly drawn) [Compound 381, (7S)-7-(1′-(4-(4-(2-(2,6-dioxopiperidin-3-yl)-1,3-dioxoisoindolin-5-yl)piperazin-1-yl)piperidine-1-carbonyl)-[1,4′-bipiperidin]-4-yl)-2-(4-phenoxyphenyl)-4,5,6,7-tetrahydropyrazolo[1,5-a]pyrimidine-3-carboxamide]	< 1	< 1	> 90	< 0.01
NC(=O)c1c(-c2ccc(Oc3ccccc3)cc2)nn2c1NCC[C@H]2C1CCN(C2CCN(C(=O)N3CCC(N4CCN(c5ccc6c(c5)CN(C5CCC(=O)NC5=O)C6=O)CC4)CC3)CC2)CC1 (stereo partly drawn) [Compound 382, (7S)-7-(1′-(4-(4-(2-(2,6-dioxopiperidin-3-yl)-1-oxoisoindolin-5-yl)piperazin-1-yl)piperidine-1-carbonyl)-[1,4′-bipiperidin]-4-yl)-2-(4-phenoxyphenyl)-4,5,6,7-tetrahydropyrazolo[1,5-a]pyrimidine-3-carboxamide]	< 1	< 1	> 90	< 0.01
NC(=O)c1c(-c2ccc(Oc3ccccc3)cc2)nn2c1NCC[C@H]2C1CCN(C2CCN(C(=O)N3CCC(C4CCN(c5ccc6c(c5)C(=O)N(C5CCC(=O)NC5=O)C6=O)CC4)CC3)CC2)CC1 (stereo partly drawn) [Compound 383, (7S)-7-(1′-(1′-(2-(2,6-dioxopiperidin-3-yl)-1,3-dioxoisoindolin-5-yl)-[4,4′-bipiperidine]-1-carbonyl)-[1,4′-bipiperidin]-4-yl)-2-(4-phenoxyphenyl)-4,5,6,7-tetrahydropyrazolo[1,5-a]pyrimidine-3-carboxamide]	< 1	< 1	> 90	0.01 to 0.05
